Laboratory results from patent publication US9469613B2, “(N-(cyanomethyl)-4-(2-(4-morpholinophenylamino)pyrimidin-4-yl)benzamide” (Gilead Sciences, Inc., priority 2014, dated 2016).
pIC50, pKd: −log10 of the molar value. Structures can show the parent of a compound that is named as a salt. Blank lines part the entries; values can stand above or below the compound they belong to.

How the values were obtained:
[1] = test system: phospho-SMAD1/5/8 in HepG2 cells; test: BMP6-mediated phospho-SMAD1/5/8 levels in HepG2 cells (immunoblot); assay type: cell-based; settings: for phospho-SMAD1/5/8 levels (normalized percentage): HepG2, 10 ng/mL BMP6 30 minutes, 100% = vehicle
Procedure: HepG2 cells were preincubated for 2 hours with increasing concentrations of CYT-0387 (0.02 to 10 μM CYT387) in the presence of 1% FBS and then stimulated for 30 minutes with 10 ng/mL of BMP6. Protein was extracted from the lysed cells and analyzed using immunoblot analysis with the antibodies specific for phospho-SMAD1 (Ser463/465), phospho-SMAD5 (Ser463/465) and phospho-SMAD8 (Ser465/467) and β-actin. Raw phospho-SMAD1/5/8 levels were quantified using densitometry software (Image Studio) and normalized to β-actin levels. The percentage of phospho-SMAD1/5/8 levels was calculated (100% is equal to phospho-SMAD1/5/8 levels in vehicle treated cells stimulated with 10 ng/mL of BMP6) and summarized in Table 9.

TGFBR1 = TGFBR1 (Homo sapiens (Human), UniProt P36897); test: Biochemical binding assay (DiscoveRx)
ALK6 (BMPR1B) = ALK6 (BMPR1B) (Homo sapiens (Human), UniProt O00238); test: In vitro enzyme inhibition assay (LanthaScreen); assay type: biochemical; settings: n = 3
Procedure: (§1) In addition, biochemical binding assays (DiscoveRx) and in vitro enzyme inhibition assays (LanthaScreen, Life Technologies) were conducted to determine the binding affinity and inhibition activities of CYT-0387 to Type-I BMPR-kinases (ALK2, ALK3, and ALK6) were conducted. Transforming growth factor beta receptor 1 (TGFBR1, ALK5) was used as a control to determine the selectivity to Type-I BMPR-kinases.

ALK2 (Acvr1) = ALK2 (Acvr1) (Homo sapiens (Human), UniProt Q04771); test: In vitro enzyme inhibition assay (LanthaScreen); assay type: biochemical; settings: n = 3
Procedure: as §1

ALK3 (BMPR1a) = ALK3 (BMPR1a) (Homo sapiens (Human), UniProt P36894); test: In vitro enzyme inhibition assay (LanthaScreen); assay type: biochemical; settings: n = 3
Procedure: as §1

[2] = Phase 1 single dose PK study, Form II tablets vs Form I capsule, healthy subjects; settings: human, in vivo
Procedure: Tablets comprising CYT-0387 dihydrochloride monohydrate Form II (doses equivalent to 100, 150, 200, and 300 mg of the free base) and capsules comprising CYT-0387 dihydrochloride anhydrous Form I (dose equivalent to 300 mg of the free base) were evaluated in a Phase 1, single dose study in healthy subjects.
Intensive PK and PD sampling occurred from 0.5 hour up to 36 hours post dose. Safety was monitored throughout the study. A parametric analysis of variance (ANOVA) using a mixed-effects model was used to fit to the natural logarithmic transformation of PK parameters (AUC and Cmax). The 90% confidence intervals were constructed for the ratio of geometric means of CYT-0387 dihydrochloride monohydrate Form II tablets at 100, 150, 200 and 300 mg vs CYT-0387 dihydrochloride anhydrous Form I capsule at 300 mg, using equivalence bounds of 70% to 143% for AUC and Cmax. The pharmacokinetic data is represented in Table 5.

[3] = Effects of antioxidants on degradation of CYT-0387 Form II in aqueous solution (HPLC); assay type: physicochemical
Procedure: This was determined from the study that investigated the potential effects of different antioxidants in inhibiting or preventing degradation of CYT-0387 dihydrochloride monohydrate Form II. In the initial study, five antioxidants of three different mechanisms of action were examined: free radical scavenger antioxidants (propyl gallate, butylated hydroxyanisole (BHA), and butylated hydroxytoluene (BHT)), a sacrificial reductant (ascorbic acid), and an oxygen scavenger (sodium metabisulfite).
Aqueous solutions containing 20 μg/mL of CYT-0387 dihydrochlorid monohydrate Form II in 70% (v/v) 50 mM acetate buffer (pH 4.0) and 30% (v/v) methanol were incubated in absence (which was used as control) and presence of 0.1% (w/v) antioxidant at 60° C. for up to 7 days. At Day 0, 5 and 7, the solution was analyzed using a reverse-phase HPLC with a Zorbax SB-C8 column ([…].). […] While total degradation products could not be determined for 0.1% ascorbic acid due to interference, the main oxidative degradation products were not observed (data not shown).
In additional studies, the effects of the lower concentrations of 0.01% and 0.001% (w/v) of propyl gallate, BHA, and ascorbic acid on the stability of CYT-0387 were examined under the same condition. […] Moreover, at 0.001% (w/v) antioxidant level, the presence of propyl gallate decreased or inhibited the degradation of CYT-0387 relative to BHA and ascorbic acid (Table 7).

ALK3 (BMPR1a), sequence (P36894 24-532): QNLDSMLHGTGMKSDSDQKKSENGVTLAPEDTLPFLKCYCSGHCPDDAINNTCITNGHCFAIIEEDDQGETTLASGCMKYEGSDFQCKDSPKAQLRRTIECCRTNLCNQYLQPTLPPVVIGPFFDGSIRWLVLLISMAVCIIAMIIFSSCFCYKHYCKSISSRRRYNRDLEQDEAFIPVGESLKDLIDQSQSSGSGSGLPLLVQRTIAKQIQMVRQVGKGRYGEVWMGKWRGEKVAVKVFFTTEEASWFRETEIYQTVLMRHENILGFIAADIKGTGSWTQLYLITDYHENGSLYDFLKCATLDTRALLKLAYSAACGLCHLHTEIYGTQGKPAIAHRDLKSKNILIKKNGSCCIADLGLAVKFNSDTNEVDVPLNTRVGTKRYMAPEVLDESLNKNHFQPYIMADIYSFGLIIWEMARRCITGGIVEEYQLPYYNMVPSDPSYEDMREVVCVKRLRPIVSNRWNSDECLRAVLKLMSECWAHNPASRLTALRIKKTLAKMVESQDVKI
TGFBR1, sequence (P36897 34-503): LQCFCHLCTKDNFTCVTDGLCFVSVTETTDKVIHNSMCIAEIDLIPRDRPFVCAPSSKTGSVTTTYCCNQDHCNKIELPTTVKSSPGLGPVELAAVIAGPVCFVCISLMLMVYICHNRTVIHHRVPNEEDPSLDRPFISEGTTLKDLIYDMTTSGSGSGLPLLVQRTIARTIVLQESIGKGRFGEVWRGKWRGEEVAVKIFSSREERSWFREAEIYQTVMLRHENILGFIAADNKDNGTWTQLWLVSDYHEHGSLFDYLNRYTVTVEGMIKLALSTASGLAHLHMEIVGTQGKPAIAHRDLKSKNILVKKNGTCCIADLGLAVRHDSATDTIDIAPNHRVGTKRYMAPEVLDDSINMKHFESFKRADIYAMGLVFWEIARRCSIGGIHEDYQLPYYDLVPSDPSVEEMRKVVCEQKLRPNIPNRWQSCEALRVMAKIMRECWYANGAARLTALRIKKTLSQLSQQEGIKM
ALK6 (BMPR1B), sequence (O00238 14-502): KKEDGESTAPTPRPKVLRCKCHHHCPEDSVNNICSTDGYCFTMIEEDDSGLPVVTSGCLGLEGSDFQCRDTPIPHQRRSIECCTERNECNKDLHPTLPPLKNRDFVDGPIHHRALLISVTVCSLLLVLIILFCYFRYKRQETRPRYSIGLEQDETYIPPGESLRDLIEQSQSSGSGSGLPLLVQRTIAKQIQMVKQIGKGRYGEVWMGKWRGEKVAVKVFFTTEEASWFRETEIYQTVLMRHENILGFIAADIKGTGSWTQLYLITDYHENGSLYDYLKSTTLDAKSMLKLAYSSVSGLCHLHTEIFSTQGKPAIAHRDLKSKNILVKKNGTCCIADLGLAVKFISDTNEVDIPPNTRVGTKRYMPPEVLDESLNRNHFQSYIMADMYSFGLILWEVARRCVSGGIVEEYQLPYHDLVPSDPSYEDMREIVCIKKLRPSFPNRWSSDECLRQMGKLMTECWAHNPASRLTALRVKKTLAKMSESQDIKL
ALK2 (Acvr1), sequence (Q04771 21-509): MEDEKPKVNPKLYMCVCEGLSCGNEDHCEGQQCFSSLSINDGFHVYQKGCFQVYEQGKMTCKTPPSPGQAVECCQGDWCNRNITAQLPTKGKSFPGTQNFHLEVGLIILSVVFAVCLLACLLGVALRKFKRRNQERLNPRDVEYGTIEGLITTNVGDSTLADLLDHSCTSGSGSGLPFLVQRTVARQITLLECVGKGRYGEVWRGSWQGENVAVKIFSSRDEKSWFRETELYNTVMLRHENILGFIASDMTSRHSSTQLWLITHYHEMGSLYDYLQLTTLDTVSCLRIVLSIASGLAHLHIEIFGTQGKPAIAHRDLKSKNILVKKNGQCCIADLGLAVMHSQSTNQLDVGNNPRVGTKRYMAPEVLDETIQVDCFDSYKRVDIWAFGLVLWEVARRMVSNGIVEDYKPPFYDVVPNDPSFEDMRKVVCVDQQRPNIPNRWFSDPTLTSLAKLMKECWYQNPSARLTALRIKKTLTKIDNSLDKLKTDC

- pKd (TGFBR1): 6.17
- pIC50 (ALK6 (BMPR1B)): 6.97
- pIC50 (ALK2 (Acvr1)): 8.10
- pIC50 (ALK3 (BMPR1a)): 6.39
SMILES: N#CCNC(=O)c1ccc(-c2ccnc(Nc3ccc(N4CCOCC4)cc3)n2)cc1 [CYT-0387, N-(cyanomethyl)-4-(2-(4-morpholinophenylamino)pyrimidin-4-yl)benzamide]
- phospho-SMAD1/5/8 levels (normalized percentage) ([1]; 0.020 μM): 83%
- phospho-SMAD1/5/8 levels (normalized percentage) ([1]; 0.039 μM): 80%
- phospho-SMAD1/5/8 levels (normalized percentage) ([1]; 0.078 μM): 91%
- phospho-SMAD1/5/8 levels (normalized percentage) ([1]; 0.156 μM): 96%
- phospho-SMAD1/5/8 levels (normalized percentage) ([1]; 0.313 μM): 88%
- phospho-SMAD1/5/8 levels (normalized percentage) ([1]; 0.625 μM): 91%
- phospho-SMAD1/5/8 levels (normalized percentage) ([1]; 1.25 μM): 65%
- phospho-SMAD1/5/8 levels (normalized percentage) ([1]; 2.5 μM): 52%
- phospho-SMAD1/5/8 levels (normalized percentage) ([1]; 5.0 μM): 40%
- phospho-SMAD1/5/8 levels (normalized percentage) ([1]; 10.0 μM): 31%
- effect on BMP6-mediated phospho-SMAD1/5/8 levels ([1]; 0.02 to 10 μM, HepG2): dose-dependent inhibition

- bioavailability compared to CYT-0387 dihydrochloride anhydrous Form I and CYT-0387 free base [2]: increased bioavailability
- main oxidative degradation products ([3]; 0.1% ascorbic acid, 60° C. (data not shown)): not observed
- amount degraded ([3]; in the presence of 0.1% (w/v) propyl gallate or BHA, 60° C., up to 7 days): Less than one percent
- Total Degradation ([3]; pH 4 aqueous buffer, 60° C., control, no antioxidant, day 0): 0.29%
- Total Degradation ([3]; pH 4 aqueous buffer, 60° C., control, no antioxidant, day 5): 17.24%
- Total Degradation ([3]; pH 4 aqueous buffer, 60° C., control, no antioxidant, day 7): 21.84%
- Total Degradation ([3]; pH 4 buffer, 60° C., BHA 0.001% w/v, day 0): 0.30%
- Total Degradation ([3]; pH 4 buffer, 60° C., BHA 0.001% w/v, day 5): 7.64%
- Total Degradation ([3]; pH 4 buffer, 60° C., BHA 0.001% w/v, day 7): 13.76%
- Total Degradation ([3]; pH 4 buffer, 60° C., BHA 0.01% w/v, day 0): 0.55%
- Total Degradation ([3]; pH 4 buffer, 60° C., BHA 0.01% w/v, day 5): 1.75%
- Total Degradation ([3]; pH 4 buffer, 60° C., BHA 0.01% w/v, day 7): 3.04%
- Total Degradation ([3]; pH 4 buffer, 60° C., BHA 0.1% w/v, day 0): 0.45%
- Total Degradation ([3]; pH 4 buffer, 60° C., BHA 0.1% w/v, day 5): 0.50%
- Total Degradation ([3]; pH 4 buffer, 60° C., BHA 0.1% w/v, day 7): 1.24%
- Total Degradation ([3]; pH 4 buffer, 60° C., BHT 0.1% w/v, day 0): 0.06%
- Total Degradation ([3]; pH 4 buffer, 60° C., BHT 0.1% w/v, day 5): 1.71%
- Total Degradation ([3]; pH 4 buffer, 60° C., BHT 0.1% w/v, day 7): 4.35%
- Total Degradation ([3]; pH 4 buffer, 60° C., ascorbic acid 0.001% w/v, day 0): 0.51%
- Total Degradation ([3]; pH 4 buffer, 60° C., ascorbic acid 0.001% w/v, day 5): 17.95%
- Total Degradation ([3]; pH 4 buffer, 60° C., ascorbic acid 0.001% w/v, day 7): 21.28%
- Total Degradation ([3]; pH 4 buffer, 60° C., ascorbic acid 0.01% w/v, day 0): 0.20%
- Total Degradation ([3]; pH 4 buffer, 60° C., ascorbic acid 0.01% w/v, day 5): 1.58%
- Total Degradation ([3]; pH 4 buffer, 60° C., ascorbic acid 0.01% w/v, day 7): 1.78%
- Total Degradation ([3]; pH 4 buffer, 60° C., propyl gallate 0.001% w/v, day 0): 0.22%
- Total Degradation ([3]; pH 4 buffer, 60° C., propyl gallate 0.001% w/v, day 5): 1.98%
- Total Degradation ([3]; pH 4 buffer, 60° C., propyl gallate 0.001% w/v, day 7): 4.32%
- Total Degradation ([3]; pH 4 buffer, 60° C., propyl gallate 0.01% w/v, day 0): 0.22%
- Total Degradation ([3]; pH 4 buffer, 60° C., propyl gallate 0.01% w/v, day 5): 0.38%
- Total Degradation ([3]; pH 4 buffer, 60° C., propyl gallate 0.01% w/v, day 7): 0.72%
- Total Degradation ([3]; pH 4 buffer, 60° C., propyl gallate 0.1% w/v, day 0): 0.29%
- Total Degradation ([3]; pH 4 buffer, 60° C., propyl gallate 0.1% w/v, day 5): 0.31%
- Total Degradation ([3]; pH 4 buffer, 60° C., propyl gallate 0.1% w/v, day 7): 0.32%
- Total Degradation ([3]; pH 4 buffer, 60° C., sodium metabisulfite 0.1% w/v, day 0): 0.33%
- Total Degradation ([3]; pH 4 buffer, 60° C., sodium metabisulfite 0.1% w/v, day 5): 43.83%
- Total Degradation ([3]; pH 4 buffer, 60° C., sodium metabisulfite 0.1% w/v, day 7): 46.31%
SMILES: N#CCNC(=O)c1ccc(-c2ccnc(Nc3ccc(N4CCOCC4)cc3)n2)cc1 [CYT-0387 Form II, N-(cyanomethyl)-4-(2-(4-morpholinophenylamino)pyrimidin-4-yl)benzamide dihydrochloride monohydrate Form II]
